Measured values reported in patent US11472826B2, “Acyclic antivirals” (priority 2016, dated 2022).

Columns and labels:
[1] = tested on: HBV; assay: microbe, parasite or virus in culture; format: cell-based; settings: Hepatitis B virus; HepG2.117 cells, 72 hours, HBV viral copy numbers in supernatant; read-out: EC50
[2] = tested on: VSV-G pseudotyped HIV NL4-3; assay: microbe, parasite or virus in culture; format: cell-based; settings: Human immunodeficiency virus 1, NL43, 72 h

Nc1ncnn2c(COCCP(=O)(O)O)ccc12 [Compound 1, (2-((4-aminopyrrolo[2,1-f][1,2,4]triazin-7-yl)methoxy)ethyl)phosphonic Acid]
EC50 [1]: < 1 µM
EC50 [2]: > 100 µM

CC(C)OC(=O)OCOP(=O)(CO[C@H](C)Cc1cnc2c(N)ncnn12)OCOC(=O)OC(C)C [Compound 12]
EC50 [1]: < 1 µM
EC50 [2]: < 20 µM
